Test results: US20250387771A1, “COMPOSITION COMPRISING BIODEGRADABLE MICROCAPSULES” (priority 2022, published 2025)

Tested on: biological contamination of microcapsule compositions
Assay: Preservation of microcapsule compositions against biological contamination over time by conventional preservation agents
Settings: agent used alone; one month or more

Compound | Prevention of biological contamination of microcapsule compositions over time
O=C(O)c1ccccc1 [benzoic acid] | unable, when used alone, to prevent the biological contamination of microcapsule compositions over time
p-hydroxybenzoic esters | unable, when used alone, to prevent the biological contamination of microcapsule compositions over time
